The record followed here is patent publication US20040220270A1, “Methods and composition of treating glaucoma by modulating tyrosinase/L-DOPA pathway” (The Jackson Laboratory, priority 2003, published 2004).

Molecules are shown by their SMILES. “Also recorded” adds a separate entry of the source.

The test deals with Cyp1b1^−/− Tyr^c−2J/c−2J (albino) double mutants. Description: L-DOPA supplementation via drinking water throughout ocular development; histologic and electron microscopic grading of angle dysgenesis. In kind it is in vivo, mice. To be noted: for developmental abnormalities in the iridocorneal angle / severe angle dysgenesis (histology): L-DOPA 1 mg/ml in drinking water from gestation until harvest at approximately 4 weeks. An excerpt:
Applicant hypothesized that tyrosinase might affect angle development through modulation of L-DOPA levels. Tyrosinase is a monooxygenase that converts tyrosine to L-DOPA and L-DOPA to dopaquinone. L-DOPA affects development and is the precursor of catecholamines, which are important developmental regulators (15-17). To investigate whether L-DOPA is a critical molecule in angle development, Applicant administered water containing L-DOPA or standard drinking water to Cyp1b1^-/- Tyr^c-2J/c-2J (albino) double mutants throughout ocular development [their mothers received this water throughout the period of in utero development (12)]. […] Despite the profound rescue in L-DOPA treated albino Cyp1b1^-/- mice, mild abnormalities of similar severity to those observed in pigmented Cyp1b1^-/- mice remained. […] These include genes that affect L-DOPA levels, affect the metabolism of L-DOPA to other developmentally important molecules or affect the signaling of these molecules in developmental/physiologic pathways. L-DOPA treatment-L-DOPA (dihydroxyphenylalanine, 15,431-8, Aldrich Chemical Company, Inc., Milwaukee, Wis.) was supplied to the animals via their drinking water at a concentration of 1 mg/ml (5, 6). L-DOPA was dissolved into acidic water (pH of 3) to avoid oxidation. Animals were either on L-DOPA for their entire gestation or started on L-DOPA at embryonic day E5.5 (prior to eye formation). Eyes were harvested at approximately 4 weeks of age and L-DOPA treatment was continued until the time of harvest. Freshly made L-DOPA water was supplied every three days. Histologic and electron microscopic analyses-Applicant fixed and processed eyes for plastic sectioning and electron microscopy as previously reported (1, 9). All tissues were harvested from mice at ages after angle formation. For light microscopy, eyes were […] sectioned and up to 56 sections were collected from each of 3 different ocular regions for all eyes. […] Collected regions included nasal lens periphery, central lens, and a region halfway between the lens center and the peripheral lens. Sections were stained with hematoxylin and eosin. Due to the potential for artifact in the delicate tissues analyzed abnormalities had to be present in multiple sections from the same region. Nine to twelve eyes were analyzed for each genotype on each genetic background. Applicant devised a grading scheme to allow comparison between different eyes. Applicant separately assessed the severity of defects affecting Schlemm's canal (SC), trabecular meshwork (TM) and creating synechiae. For each phenotype, Applicant graded 6 similarly spaced sections for each ocular region. Applicant graded the severity of abnormalities in both angles of a section. Thus, Applicant graded 36 angles (6 sections×2 angles×3 regions) from different ocular regions for each eye. Applicant designated a grade of 0, 1, 2, 3, or 4 (increasing in severity from 0 to 4, see below) to each phenotype for each angle. For an eye, the total grade could be any value between 0 and 144 (36 angles×4). […] To assess the difference in the severity of angle dysgenesis between the albino and pigmented eyes, Applicant graded approximately 10 eyes from mice of each Cyp1b1 and Foxc1 genotype. Due to the continuous nature of the grade, Applicant present the data as mean± SEM and compared genotypes using two tailed student t-tests. Applicant checked the consistency of the grading method by assessing 8 random eyes on a second occasion without knowledge of the initial grade. […]

With `N[C@@H](Cc1ccc(O)c(O)c1)C(=O)O` [L-DOPA, 3,4-dihydroxyphenylalanine], the “developmental abnormalities in the iridocorneal angle / severe angle dysgenesis (histology)” value is listed as “alleviated; also recorded: prevent the severe angle dysgenesis” (Cyp1b1^−/− Tyr^c−2J/c−2J mice, B6 background, versus untreated) and “substantially prevented developmental abnormalities” (Cyp1b1^−/− Tyr^c−2J/c−2J mice, B6 background, versus untreated, listed as LDOPA). Moreover, where the note is “Cyp1b1^−/− Tyr^c−2J/c−2J mice, B6 background, L-DOPA 1 mg/ml in drinking water, versus untreated”, the “ultrastructure of the trabecular meshwork (electron micrographs)” value is given as “rescues the ultrastructure of the trabecular meshwork”. In addition, the “mean severity grades of developmental dysgenesis (Schlemm's canal, trabecular meshwork, synechiae)” value (Cyp1b1^−/− Tyr^c−2J/c−2J mice, L-DOPA 1 mg/ml in drinking water, grade 0-144 per eye, p<0.001 for all assessed phenotypes versus untreated) is listed as “can be alleviated”. The “abnormalities remaining after L-DOPA treatment” value (L-DOPA treated albino Cyp1b1^−/− mice, compared with pigmented Cyp1b1^−/− mice) is on record as “mild abnormalities of similar severity to those observed in pigmented Cyp1b1^−/− mice remained”.
